This is an account of results in paper PMC10930102 (Journal of Enzyme Inhibition and Medicinal Chemistry, 2024).

The test system of one assay is U87MG. As to the kind of experiment: SRB antiproliferation assay. The assay is classed as cell-based. The conditions noted are these: Homo sapiens, U-87 MG, 48 h, read-out: Antiproliferative activity (IC50) U87MG.
Another assay deals with T1, ALK C1156Y (Homo sapiens, UniProt Q9UM73, C1156Y).
T1 construct: purchased Reaction Biology Corporation
As to the kind of experiment: ALK mutant in vitro enzymatic assay. The note with it: 20 μM ATP. It counts as biochemical.

In another assay the target is T2, ALK G1269A (Homo sapiens, UniProt Q9UM73, G1269A).
T2 construct: purchased Reaction Biology Corporation
T2 sequence (Q9UM73 19-1620 G1269A): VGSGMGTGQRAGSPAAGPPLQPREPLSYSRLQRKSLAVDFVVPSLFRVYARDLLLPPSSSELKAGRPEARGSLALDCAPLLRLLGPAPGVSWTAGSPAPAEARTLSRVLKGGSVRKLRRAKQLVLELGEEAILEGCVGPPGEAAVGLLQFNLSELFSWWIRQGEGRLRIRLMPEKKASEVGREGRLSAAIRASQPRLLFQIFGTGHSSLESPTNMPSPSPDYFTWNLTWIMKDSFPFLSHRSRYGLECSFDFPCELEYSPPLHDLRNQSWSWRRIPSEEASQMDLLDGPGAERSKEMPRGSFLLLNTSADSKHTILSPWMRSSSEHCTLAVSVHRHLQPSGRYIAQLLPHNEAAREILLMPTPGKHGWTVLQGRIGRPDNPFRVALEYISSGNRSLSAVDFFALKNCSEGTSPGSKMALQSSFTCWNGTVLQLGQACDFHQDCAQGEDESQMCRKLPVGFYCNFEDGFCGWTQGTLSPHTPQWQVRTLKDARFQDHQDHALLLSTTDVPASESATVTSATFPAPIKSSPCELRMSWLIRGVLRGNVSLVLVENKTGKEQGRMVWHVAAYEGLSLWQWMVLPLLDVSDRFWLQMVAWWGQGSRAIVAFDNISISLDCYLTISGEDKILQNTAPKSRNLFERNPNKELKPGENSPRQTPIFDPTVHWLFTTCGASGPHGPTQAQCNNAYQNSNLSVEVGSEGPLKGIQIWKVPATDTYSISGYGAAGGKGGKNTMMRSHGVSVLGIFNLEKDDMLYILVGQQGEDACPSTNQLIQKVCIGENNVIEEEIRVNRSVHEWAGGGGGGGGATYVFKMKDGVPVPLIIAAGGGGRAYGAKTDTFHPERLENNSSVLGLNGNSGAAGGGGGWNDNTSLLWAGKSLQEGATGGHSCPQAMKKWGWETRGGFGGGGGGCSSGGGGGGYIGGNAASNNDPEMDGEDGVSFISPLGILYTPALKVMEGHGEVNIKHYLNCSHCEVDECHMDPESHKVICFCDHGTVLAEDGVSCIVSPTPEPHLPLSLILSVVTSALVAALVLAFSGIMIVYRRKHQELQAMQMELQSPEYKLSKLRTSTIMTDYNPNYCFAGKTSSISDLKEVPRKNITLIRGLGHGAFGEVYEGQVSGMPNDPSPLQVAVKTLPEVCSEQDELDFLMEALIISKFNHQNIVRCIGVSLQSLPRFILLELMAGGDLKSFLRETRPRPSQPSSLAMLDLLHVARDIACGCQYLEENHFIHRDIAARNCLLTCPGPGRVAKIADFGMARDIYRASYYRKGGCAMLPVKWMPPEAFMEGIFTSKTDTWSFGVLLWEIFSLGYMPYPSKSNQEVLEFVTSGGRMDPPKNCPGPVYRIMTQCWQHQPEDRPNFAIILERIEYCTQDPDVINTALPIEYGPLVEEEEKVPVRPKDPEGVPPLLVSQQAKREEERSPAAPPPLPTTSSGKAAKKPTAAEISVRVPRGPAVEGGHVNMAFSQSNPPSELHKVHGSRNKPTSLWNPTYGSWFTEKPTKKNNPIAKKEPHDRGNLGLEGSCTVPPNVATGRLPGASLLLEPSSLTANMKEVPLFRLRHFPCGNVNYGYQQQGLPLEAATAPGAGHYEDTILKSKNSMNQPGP
Briefly: ALK mutant in vitro enzymatic assay. The assay is classed as biochemical. The conditions noted are these: 20 μM ATP.

The next assay concerns the target T3, IGF1R (Homo sapiens, UniProt P08069).
T3 construct: purchased Reaction Biology Corporation
As to the kind of experiment: RTK in vitro enzymatic assay. The assay is classed as biochemical. The conditions noted are these: 20 μM ATP.

The next assay has as its target T4, c-Src (Homo sapiens, UniProt P12931).
T4 construct: purchased Reaction Biology Corporation
As to the kind of experiment: RTK in vitro enzymatic assay. It counts as biochemical. The note with it: 20 μM ATP.

The target of the next assay is T5, c-Met (Homo sapiens, UniProt P08581).
T5 construct: purchased Reaction Biology Corporation
Briefly: RTK in vitro enzymatic assay. The assay is classed as biochemical. The conditions noted are these: 20 μM ATP.

The target in a further assay is T6, VEGFR2 (Homo sapiens, UniProt P35968).
T6 construct: purchased Reaction Biology Corporation
T6 sequence (P35968 20-1356): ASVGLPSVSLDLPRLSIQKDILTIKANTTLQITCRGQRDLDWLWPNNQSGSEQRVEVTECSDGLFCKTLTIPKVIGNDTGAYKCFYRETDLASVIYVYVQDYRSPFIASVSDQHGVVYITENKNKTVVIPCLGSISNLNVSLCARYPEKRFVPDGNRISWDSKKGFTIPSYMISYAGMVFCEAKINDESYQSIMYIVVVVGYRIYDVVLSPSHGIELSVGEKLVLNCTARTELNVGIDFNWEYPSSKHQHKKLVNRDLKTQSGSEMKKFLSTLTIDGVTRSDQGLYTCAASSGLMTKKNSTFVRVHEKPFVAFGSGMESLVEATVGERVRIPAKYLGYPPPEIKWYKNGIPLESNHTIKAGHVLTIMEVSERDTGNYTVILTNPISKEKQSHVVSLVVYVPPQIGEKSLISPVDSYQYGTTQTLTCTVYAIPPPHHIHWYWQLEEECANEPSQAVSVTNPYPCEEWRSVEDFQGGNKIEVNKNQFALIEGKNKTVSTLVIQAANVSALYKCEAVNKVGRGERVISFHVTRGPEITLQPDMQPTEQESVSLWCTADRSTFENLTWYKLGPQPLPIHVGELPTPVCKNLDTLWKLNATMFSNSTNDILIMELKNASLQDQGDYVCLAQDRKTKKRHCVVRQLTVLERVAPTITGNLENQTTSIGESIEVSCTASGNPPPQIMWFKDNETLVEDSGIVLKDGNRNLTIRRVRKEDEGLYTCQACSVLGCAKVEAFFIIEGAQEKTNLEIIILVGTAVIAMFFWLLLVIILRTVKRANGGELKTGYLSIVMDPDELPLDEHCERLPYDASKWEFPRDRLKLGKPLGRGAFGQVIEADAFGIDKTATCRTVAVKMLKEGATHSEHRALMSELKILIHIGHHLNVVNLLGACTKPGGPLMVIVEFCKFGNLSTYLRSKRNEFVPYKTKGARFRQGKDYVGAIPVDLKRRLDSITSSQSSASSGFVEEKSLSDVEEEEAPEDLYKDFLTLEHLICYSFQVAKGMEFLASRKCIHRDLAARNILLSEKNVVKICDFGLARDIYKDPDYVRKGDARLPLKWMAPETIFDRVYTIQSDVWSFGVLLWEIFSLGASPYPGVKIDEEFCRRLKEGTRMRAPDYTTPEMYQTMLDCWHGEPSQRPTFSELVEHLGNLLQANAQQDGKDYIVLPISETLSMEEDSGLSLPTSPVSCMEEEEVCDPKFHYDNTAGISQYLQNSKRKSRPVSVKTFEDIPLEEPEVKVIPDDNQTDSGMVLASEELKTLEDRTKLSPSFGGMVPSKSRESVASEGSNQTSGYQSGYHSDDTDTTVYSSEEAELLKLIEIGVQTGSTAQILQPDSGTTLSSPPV
Briefly: RTK in vitro enzymatic assay. The assay is classed as biochemical. The conditions noted are these: 20 μM ATP.

Assay [1] has as its system acetylated histone H3, a substrate of class I HDAC. Briefly: Western blot of acetylated histone H3 in H2228 cells. It counts as cell-based, human. The note with it: 6 h, 3b 2 µM. The source says:
Figure 4. Effect of test compounds on H2228 cells. […] (A) Western blots of phosphorylated tyrosine residue 1640 on ALK as well as acetylated (Ac) α-tubulin and histone H3 with their corresponding total proteins for normalisation. GAPDH was used as a loading control. (B) Quantification of western blotting results using Image J. Error bars indicate ± S.D.E. *p-Value ≤ 0.05, **p-value ≤ 0.01, ***p-value ≤ 0.001.
Treated cells were washed three times with ice-cold phosphate-buffered saline and lysed in lysis buffer containing 100 mM Tris-HCl, 12 mM sodium deoxycholate, 12 mM sodium lauroylsarcosinate, and protease inhibitor cocktail (BioTools). Cells were heated in lysis buffer at 95 °C for 5 min and then the cell membrane was broken up by sonication (Bioruptor). Cellular debris and unbroken cells were removed by centrifugation (12,500 × g for 30 min, 4 °C). Protein concentration was determined using the bicinchoninic acid assay (Thermo). Cell extracts (20 μg) were resolved by 12% sodium dodecyl sulfate-polyacrylamide gel electrophoresis (SDS-PAGE), transferred to PVDF membranes, and probed separately with antibodies for Ac-histone H3, Ac-α-tubulin, histone H3, α-tubulin, HDAC1, HDAC6, HDAC8 and GAPDH. […] Antibody signals were detected using an enhanced chemiluminescence system.

In the next assay the target is T7, CYP1A2 (Homo sapiens, UniProt P05177).
T7 construct: purchased Reaction Biology Corporation; host or cells: CYP cDNA baculovirus expression systems
T7 sequence (P05177 whole entry): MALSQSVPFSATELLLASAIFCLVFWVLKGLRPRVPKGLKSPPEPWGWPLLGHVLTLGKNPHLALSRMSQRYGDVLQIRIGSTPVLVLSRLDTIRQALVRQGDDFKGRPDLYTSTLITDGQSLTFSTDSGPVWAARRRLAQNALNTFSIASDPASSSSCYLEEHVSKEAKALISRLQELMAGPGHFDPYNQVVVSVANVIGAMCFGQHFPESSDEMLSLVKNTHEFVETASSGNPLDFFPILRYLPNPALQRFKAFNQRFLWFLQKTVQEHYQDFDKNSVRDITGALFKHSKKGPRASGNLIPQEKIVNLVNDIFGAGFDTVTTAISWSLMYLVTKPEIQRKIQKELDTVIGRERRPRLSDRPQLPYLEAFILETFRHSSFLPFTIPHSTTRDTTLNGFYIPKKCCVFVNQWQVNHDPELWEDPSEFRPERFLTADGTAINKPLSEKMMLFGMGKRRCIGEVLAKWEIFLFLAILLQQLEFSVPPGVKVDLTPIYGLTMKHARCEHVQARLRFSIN
Briefly: CYP450 inhibition assay. The assay is classed as in vitro ADME. The conditions noted are these: human recombinant enzyme; read-out: IC50 CYP1A2.

The subject of the next assay is HepG2. As to the kind of experiment: SRB antiproliferation assay. It counts as cell-based. The conditions noted are these: Homo sapiens, 48 h, read-out: Antiproliferative activity (IC50) HepG2. (The SRB assay estimates cell density from bound dye.)
The target in the next assay is T8, CYP3A4 (Homo sapiens, UniProt P08684).
T8 construct: purchased Reaction Biology Corporation; host or cells: CYP cDNA baculovirus expression systems
T8 sequence (P08684 whole entry): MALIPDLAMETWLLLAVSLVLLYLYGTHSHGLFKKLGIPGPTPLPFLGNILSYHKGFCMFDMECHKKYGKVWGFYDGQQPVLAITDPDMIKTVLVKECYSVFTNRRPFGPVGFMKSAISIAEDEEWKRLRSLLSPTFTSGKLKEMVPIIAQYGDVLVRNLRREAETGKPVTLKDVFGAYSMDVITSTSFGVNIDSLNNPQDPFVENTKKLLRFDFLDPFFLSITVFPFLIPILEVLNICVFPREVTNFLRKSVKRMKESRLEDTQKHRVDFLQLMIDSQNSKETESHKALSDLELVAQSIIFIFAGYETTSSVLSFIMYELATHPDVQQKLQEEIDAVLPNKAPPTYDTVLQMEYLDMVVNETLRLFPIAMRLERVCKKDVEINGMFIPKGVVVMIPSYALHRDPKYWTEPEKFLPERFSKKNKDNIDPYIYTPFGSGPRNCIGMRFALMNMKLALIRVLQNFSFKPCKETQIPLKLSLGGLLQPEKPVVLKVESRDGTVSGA
As to the kind of experiment: CYP450 inhibition assay. The conditions noted are these: human recombinant enzyme. It counts as in vitro ADME.

In a further assay the target is T9, HDAC6 (Homo sapiens, UniProt Q9UBN7).
T9 construct: purchased Reaction Biology Corporation; host or cells: baculovirus expression system in SF9 cells
T9 sequence (Q9UBN7 1-1215): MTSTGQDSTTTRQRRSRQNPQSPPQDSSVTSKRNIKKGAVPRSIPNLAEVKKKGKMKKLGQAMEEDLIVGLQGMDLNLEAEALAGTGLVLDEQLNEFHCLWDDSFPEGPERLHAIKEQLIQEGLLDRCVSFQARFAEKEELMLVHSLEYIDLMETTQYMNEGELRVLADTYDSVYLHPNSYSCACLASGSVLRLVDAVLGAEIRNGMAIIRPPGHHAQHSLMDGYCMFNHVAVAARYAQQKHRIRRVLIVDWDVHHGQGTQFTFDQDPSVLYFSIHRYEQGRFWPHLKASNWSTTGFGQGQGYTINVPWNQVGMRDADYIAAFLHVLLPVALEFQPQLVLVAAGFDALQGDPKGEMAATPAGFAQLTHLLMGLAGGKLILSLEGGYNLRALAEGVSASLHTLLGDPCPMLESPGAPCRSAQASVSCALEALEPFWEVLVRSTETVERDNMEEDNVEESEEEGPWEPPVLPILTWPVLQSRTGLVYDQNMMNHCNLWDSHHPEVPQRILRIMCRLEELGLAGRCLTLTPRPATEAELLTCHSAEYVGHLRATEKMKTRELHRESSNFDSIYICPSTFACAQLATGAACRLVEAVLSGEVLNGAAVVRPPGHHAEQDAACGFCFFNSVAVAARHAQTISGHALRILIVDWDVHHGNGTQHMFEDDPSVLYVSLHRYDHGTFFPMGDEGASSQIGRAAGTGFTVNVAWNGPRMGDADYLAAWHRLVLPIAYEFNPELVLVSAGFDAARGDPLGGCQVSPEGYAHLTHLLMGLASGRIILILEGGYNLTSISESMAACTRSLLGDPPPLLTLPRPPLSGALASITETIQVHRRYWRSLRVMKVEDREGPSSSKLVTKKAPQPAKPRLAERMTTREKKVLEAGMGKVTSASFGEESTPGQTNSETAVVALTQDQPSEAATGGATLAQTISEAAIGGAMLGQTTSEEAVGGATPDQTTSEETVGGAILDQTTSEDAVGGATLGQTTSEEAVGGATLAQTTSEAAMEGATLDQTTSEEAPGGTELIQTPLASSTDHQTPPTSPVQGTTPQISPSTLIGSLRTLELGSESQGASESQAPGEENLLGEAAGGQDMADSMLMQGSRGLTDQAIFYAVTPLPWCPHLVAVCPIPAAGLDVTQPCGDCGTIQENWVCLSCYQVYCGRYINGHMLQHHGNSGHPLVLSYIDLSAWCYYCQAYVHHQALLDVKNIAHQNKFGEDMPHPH
Briefly: HDAC inhibition assay (fluorogenic peptide, Reaction Biology). The assay is classed as biochemical. The conditions noted are these: tested once, ten-dose starting at 30 µM.

Assay [2] relates to protein expression level of HDAC1, HDAC6, or HDAC8. As to the kind of experiment: Western blot of HDAC protein expression. It counts as cell-based, human. The note with it: western blot after treatment (supplemental Figure S3). Here is the method:
Treated cells were washed three times with ice-cold phosphate-buffered saline and lysed in lysis buffer containing 100 mM Tris-HCl, 12 mM sodium deoxycholate, 12 mM sodium lauroylsarcosinate, and protease inhibitor cocktail (BioTools). Cells were heated in lysis buffer at 95 °C for 5 min and then the cell membrane was broken up by sonication (Bioruptor). Cellular debris and unbroken cells were removed by centrifugation (12,500 × g for 30 min, 4 °C). Protein concentration was determined using the bicinchoninic acid assay (Thermo). Cell extracts (20 μg) were resolved by 12% sodium dodecyl sulfate-polyacrylamide gel electrophoresis (SDS-PAGE), transferred to PVDF membranes, and probed separately with antibodies for Ac-histone H3, Ac-α-tubulin, histone H3, α-tubulin, HDAC1, HDAC6, HDAC8 and GAPDH. The antibodies of GAPDH, HDAC1, and HDAC8 were purchased from ABclonal and all other antibodies were from Cell Signalling Technology. Antibody signals were detected using an enhanced chemiluminescence system.
Figure S3. Western blots of HDAC1, HDAC6, and HDAC8 after drug treatment and vehicle control
activity was assessed by MTS assay, and the concentration of inhibitors was determined to be half of their
was tested five times, and the results were normalized to 1. (blank) […]
For orientation: Immunoblotting shows a protein as a band on a membrane.

Another assay deals with A549. As to the kind of experiment: SRB antiproliferation assay. It counts as cell-based. The note with it: Homo sapiens, 48 h, read-out: Antiproliferative activity (IC50) A549.
Another assay has as its target T10, CYP2D6 (Homo sapiens, UniProt P10635).
T10 construct: purchased Reaction Biology Corporation; host or cells: CYP cDNA baculovirus expression systems
As to the kind of experiment: CYP450 inhibition assay. The note with it: human recombinant enzyme. The assay is classed as in vitro ADME.

Some results are limits rather than exact numbers.

T10 sequence (P10635 whole entry): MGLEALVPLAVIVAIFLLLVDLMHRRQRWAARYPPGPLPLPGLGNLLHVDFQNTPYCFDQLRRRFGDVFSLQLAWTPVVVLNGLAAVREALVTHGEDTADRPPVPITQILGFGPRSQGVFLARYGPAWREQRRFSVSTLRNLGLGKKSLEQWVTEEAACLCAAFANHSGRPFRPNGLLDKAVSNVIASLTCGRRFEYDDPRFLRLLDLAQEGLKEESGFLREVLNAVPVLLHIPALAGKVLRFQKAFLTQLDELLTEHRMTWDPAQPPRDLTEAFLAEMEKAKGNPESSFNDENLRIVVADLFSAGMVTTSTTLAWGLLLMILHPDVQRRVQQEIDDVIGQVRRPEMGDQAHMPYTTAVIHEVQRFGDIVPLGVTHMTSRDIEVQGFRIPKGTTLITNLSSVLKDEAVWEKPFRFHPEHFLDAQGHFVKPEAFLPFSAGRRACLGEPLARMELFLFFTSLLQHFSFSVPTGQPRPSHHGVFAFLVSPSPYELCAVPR
T4 sequence (P12931 whole entry): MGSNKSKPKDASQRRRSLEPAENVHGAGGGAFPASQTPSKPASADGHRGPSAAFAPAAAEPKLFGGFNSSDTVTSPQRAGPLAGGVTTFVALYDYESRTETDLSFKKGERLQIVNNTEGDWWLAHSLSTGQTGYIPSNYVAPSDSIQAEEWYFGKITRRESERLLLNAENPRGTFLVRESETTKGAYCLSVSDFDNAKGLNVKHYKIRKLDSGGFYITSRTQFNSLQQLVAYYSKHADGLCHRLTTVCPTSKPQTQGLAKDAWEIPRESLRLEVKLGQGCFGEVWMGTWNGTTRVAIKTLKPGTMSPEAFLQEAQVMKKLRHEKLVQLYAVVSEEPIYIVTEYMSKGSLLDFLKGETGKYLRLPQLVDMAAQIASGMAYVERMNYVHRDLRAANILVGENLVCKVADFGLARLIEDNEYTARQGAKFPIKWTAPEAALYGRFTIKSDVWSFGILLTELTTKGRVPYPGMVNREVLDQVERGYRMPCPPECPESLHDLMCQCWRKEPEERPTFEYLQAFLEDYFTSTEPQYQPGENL
T1 sequence (Q9UM73 19-1620 C1156Y): as the sequence (Q9UM73 19-1620 G1269A) above, with C1138Y, A1251G counted along it

`CC(C)NC(=O)C1CCC(n2c(=NC(=O)c3ccccc3)[nH]c3cc(C=CC(=O)NO)ccc32)CC1` [Compound 3b, (E)-N-(5-((E)-3-(Hydroxyamino)-3-oxoprop-1-en-1-yl)-1-((1S,4S)-4-(isopropylcarbamoyl)cyclohexyl)-1H-benzo[d]imidazol-2(3H)-ylidene)benzamide]: the IC50 in the assay with U87MG was 620 ± 100 nM; against ALK C1156Y, 9.7 nM; against ALK G1269A, 50 nM; against IGF1R it was 4840 nM; on c-Src, 3380 nM; on c-Met it was more than 10000 nM. In addition, the IC50 against VEGFR2 was more than 10000 nM; at CYP1A2 it was 12700 nM; in the assay on HepG2, 590 ± 90 nM; at CYP3A4, 9370 nM; against HDAC6, 1030 nM; with A549, 330 ± 30 nM. In addition, the IC50 on CYP2D6 is more than 10000 nM. In addition, in [1], the “acetylated histone H3 level” value is “slightly increased”. Further, the “protein expression level of HDAC1, HDAC6, or HDAC8” value in assay [2] is given as “not perturbed”.

The term IC50 denotes the point on the concentration scale where inhibition reaches its midpoint.
